Test results from US12723063B2, “GIPR-agonist compounds” (Eli Lilly and Company, priority 2019, dated 2026).
*1 amine or outer side, *2 acyl side, *3 side chain or, on linkers, in order; H or OH if unused. Where a SMILES comes first, the peptide text is derived from it. Side-chain parts run from the residue outwards. [ ]: non-standard residue; d: D form. The star is where a group is joined. C20 diacid = O=C(O)CCCCCCCCCCCCCCCCCCC(=O)*; C18 diacid = O=C(O)CCCCCCCCCCCCCCCCC(=O)*; αMePhe(2-F) = C[C@](N)(Cc1ccccc1F)C(=O)O; γGlu = O=C(O)[C@H](CCC(=O)[*:2])N[*:1]; 4Pal = N[C@@H](Cc1ccncc1)C(=O)O; αMeL = CC(C)C[C@](C)(N)C(=O)O; Orn = NCCC[C@H](N)C(=O)O; AEEA = NCCOCCOCC(=O)O; Aib = CC(C)(N)C(=O)O

Target: T1, human GLP-1R (Homo sapiens, UniProt P43220)
T1 construct: expressed in transfected cells; crude membranes
Assay: [125I]-GLP-1 binding, SPA with WGA beads, 0.1% bacitracin
Settings: geometric mean, read-out: hGLP1R Ki
In short: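 Binding buffer was 25 mM HEPES pH 7.4 with 2.5 mM CaCl2, 1 mM MgCl2, 0.1% (w/v) bacitracin, 0.003% Tween-20 and EDTA-free protease inhibitors. Four-parameter regression gave IC50, converted to Ki (geometric mean, SEM, n independent days).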

T1 sequence (P43220 24-463): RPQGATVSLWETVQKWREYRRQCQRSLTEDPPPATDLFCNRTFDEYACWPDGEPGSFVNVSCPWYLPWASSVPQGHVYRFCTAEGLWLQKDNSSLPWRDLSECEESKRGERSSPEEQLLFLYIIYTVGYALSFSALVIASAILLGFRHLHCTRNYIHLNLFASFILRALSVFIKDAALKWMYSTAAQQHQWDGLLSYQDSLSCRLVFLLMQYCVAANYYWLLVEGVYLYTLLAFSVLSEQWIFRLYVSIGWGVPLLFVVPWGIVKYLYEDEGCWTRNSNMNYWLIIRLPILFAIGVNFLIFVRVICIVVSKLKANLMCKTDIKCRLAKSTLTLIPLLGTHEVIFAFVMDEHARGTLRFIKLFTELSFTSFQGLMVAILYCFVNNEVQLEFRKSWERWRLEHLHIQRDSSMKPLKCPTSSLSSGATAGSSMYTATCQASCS

For `CC[C@H](C)[C@H](NC(=O)[C@H](CO)NC(=O)[C@H](Cc1ccc(O)cc1)NC(=O)[C@H](CC(=O)O)NC(=O)[C@H](CO)NC(=O)[C@@H](NC(=O)[C@](C)(Cc1ccccc1F)NC(=O)[C@@H](NC(=O)CNC(=O)[C@H](CCC(=O)O)NC(=O)[C@H](C)NC(=O)[C@@H](Cc1ccc(O)cc1)NC(C)=O)[C@@H](C)O)[C@@H](C)CC)C(=O)N[C@@H](C)C(=O)N[C@@H](CC(C)C)C(=O)N[C@@H](CC(=O)O)C(=O)N[C@@H](CCCCN)C(=O)N[C@@H](CCCCNC(=O)COCCOCCNC(=O)COCCOCCNC(=O)CC[C@H](NC(=O)CCCCCCCCCCCCCCCCC(=O)O)C(=O)O)C(=O)N[C@@H](Cc1c[nH]cn1)C(=O)N[C@@H](CCC(N)=O)C(=O)NC(C)(C)C(=O)N[C@@H](CCC(=O)O)C(=O)N[C@@H](Cc1ccccc1)C(=O)N[C@H](C(=O)N[C@@H](CC(N)=O)C(=O)N[C@@H](Cc1ccc(O)cc1)C(=O)N[C@@H](CC(C)C)C(=O)N[C@@H](CC(C)C)C(=O)N[C@@H](C)C(=O)NCC(=O)NCC(=O)N1CCC[C@H]1C(=O)N[C@@H](CO)C(=O)N[C@@H](CO)C(=O)NCC(=O)N[C@@H](C)C(=O)N1CCC[C@H]1C(=O)N1CCC[C@H]1C(=O)N1CCC[C@H]1C(=O)N[C@@H](CO)C(N)=O)C(C)C` [Example 30] (Ac-[dY]AEGT[αMePhe(2-F)]ISDYSIALDKK([AEEA-AEEA-γGlu-C18 diacid])HQ[Aib]EFVNYLLAGGPSSGAPPPS-NH2), which Ki is on record?
The Ki was 26.5 nM.

How did the Ki turn out when `CC[C@H](C)[C@H](NC(=O)[C@H](CO)NC(=O)[C@H](Cc1ccc(O)cc1)NC(=O)[C@H](CC(=O)O)NC(=O)[C@H](CO)NC(=O)[C@@H](NC(=O)[C@H](Cc1ccccc1)NC(=O)[C@@H](NC(=O)CNC(=O)[C@H](CCC(=O)O)NC(=O)[C@@H](C)NC(=O)[C@@H](N)Cc1ccc(O)cc1)[C@@H](C)O)[C@@H](C)CC)C(=O)N[C@@H](CC(C)C)C(=O)N[C@@H](CC(C)C)C(=O)N[C@@H](CC(=O)O)C(=O)N[C@@H](CCCCN)C(=O)N[C@@H](CCCCNC(=O)COCCOCCNC(=O)COCCOCCNC(=O)CC[C@H](NC(=O)CCCCCCCCCCCCCCCCC(=O)O)C(=O)O)C(=O)N[C@@H](C)C(=O)N[C@@H](CCC(N)=O)C(=O)NC(C)(C)C(=O)N[C@@H](CCC(=O)O)C(=O)N[C@@H](Cc1ccccc1)C(=O)N[C@H](C(=O)N[C@@H](CC(N)=O)C(=O)N[C@@H](Cc1c[nH]c2ccccc12)C(=O)N[C@@H](CC(C)C)C(=O)N[C@@H](CC(C)C)C(=O)N[C@@H](C)C(=O)N[C@@H](CCC(N)=O)C(=O)NCC(=O)N1CCC[C@H]1C(=O)N[C@@H](CO)C(=O)N[C@@H](CO)C(=O)NCC(=O)N[C@@H](C)C(=O)N1CCC[C@H]1C(=O)N1CCC[C@H]1C(=O)N1CCC[C@H]1C(=O)N[C@@H](CO)C(N)=O)C(C)C` [Example 20] (H-Y[dA]EGTFISDYSILLDKK([AEEA-AEEA-γGlu-C18 diacid])AQ[Aib]EFVNWLLAQGPSSGAPPPS-NH2) was run?
The Ki was 79.8 nM.

For `CC[C@H](C)[C@H](NC(=O)[C@H](CO)NC(=O)[C@H](Cc1ccc(O)cc1)NC(=O)[C@H](CC(=O)O)NC(=O)[C@H](CO)NC(=O)[C@@H](NC(=O)[C@H](Cc1ccccc1)NC(=O)[C@@H](NC(=O)CNC(=O)[C@H](CCC(=O)O)NC(=O)[C@@H](C)NC(=O)[C@@H](N)Cc1ccc(O)cc1)[C@@H](C)O)[C@@H](C)CC)C(=O)N[C@@H](CC(C)C)C(=O)N[C@@H](CC(C)C)C(=O)N[C@@H](CC(=O)O)C(=O)N[C@@H](CCCCN)C(=O)N[C@@H](CCCCNC(=O)COCCOCCNC(=O)COCCOCCNC(=O)CC[C@H](NC(=O)CCCCCCCCCCCCCCCCCCC(=O)O)C(=O)O)C(=O)N[C@@H](Cc1c[nH]cn1)C(=O)N[C@@H](CCC(N)=O)C(=O)N[C@@H](CCC(N)=O)C(=O)N[C@@H](CC(=O)O)C(=O)N[C@@H](Cc1ccccc1)C(=O)N[C@H](C(=O)N[C@@H](CC(N)=O)C(=O)N[C@@H](Cc1c[nH]c2ccccc12)C(=O)N[C@@H](CC(C)C)C(=O)N[C@@H](CC(C)C)C(=O)N[C@@H](C)C(=O)NCC(=O)NCC(=O)N1CCC[C@H]1C(=O)N[C@@H](CO)C(=O)N[C@@H](CO)C(=O)NCC(=O)N[C@@H](C)C(=O)N1CCC[C@H]1C(=O)N1CCC[C@H]1C(=O)N1CCC[C@H]1C(=O)N[C@@H](CO)C(N)=O)C(C)C` [Example 10] (H-Y[dA]EGTFISDYSILLDKK([AEEA-AEEA-γGlu-C20 diacid])HQQDFVNWLLAGGPSSGAPPPS-NH2), which Ki is on record?
Its Ki is 60.7 nM.

Which Ki does the source give for `CC[C@H](C)[C@H](NC(=O)[C@H](CO)NC(=O)[C@H](Cc1ccc(O)cc1)NC(=O)[C@H](CC(=O)O)NC(=O)[C@H](CO)NC(=O)[C@@H](NC(=O)[C@H](Cc1ccccc1)NC(=O)[C@@H](NC(=O)CNC(=O)[C@H](CCC(=O)O)NC(=O)C(C)(C)NC(=O)[C@@H](N)Cc1ccc(O)cc1)[C@@H](C)O)[C@@H](C)CC)C(=O)N[C@@H](C)C(=O)N[C@@H](CC(C)C)C(=O)N[C@@H](CC(=O)O)C(=O)N[C@@H](CCCCN)C(=O)N[C@@H](CCCCNC(=O)COCCOCCNC(=O)COCCOCCNC(=O)CC[C@H](NC(=O)CCCCCCCCCCCCCCCCC(=O)O)C(=O)O)C(=O)N[C@@H](Cc1c[nH]cn1)C(=O)N[C@@H](CCC(N)=O)C(=O)NC(C)(C)C(=O)N[C@@H](CC(=O)O)C(=O)N[C@@H](Cc1ccccc1)C(=O)N[C@H](C(=O)N[C@@H](CCC(=O)O)C(=O)N[C@@H](Cc1ccncc1)C(=O)N[C@@H](CC(C)C)C(=O)N[C@@H](CC(C)C)C(=O)N[C@@H](C)C(=O)NCC(=O)NCC(=O)N1CCC[C@H]1C(=O)N[C@@H](CO)C(=O)N[C@@H](CO)C(=O)NCC(=O)N[C@@H](C)C(=O)N1CCC[C@H]1C(=O)N1CCC[C@H]1C(=O)N1CCC[C@H]1C(=O)N[C@@H](CO)C(N)=O)C(C)C` [Example 21] (H-Y[Aib]EGTFISDYSIALDKK([AEEA-AEEA-γGlu-C18 diacid])HQ[Aib]DFVE[4Pal]LLAGGPSSGAPPPS-NH2) here?
The Ki was 801 nM.

How did the Ki turn out when `CC[C@H](C)[C@H](NC(=O)[C@H](CCCN)NC(=O)[C@H](CC(=O)O)NC(=O)[C@H](CC(C)C)NC(=O)[C@](C)(CC(C)C)NC(=O)[C@@H](NC(=O)[C@H](CO)NC(=O)[C@H](Cc1ccc(O)cc1)NC(=O)[C@H](CC(=O)O)NC(=O)[C@H](CO)NC(=O)[C@@H](NC(=O)[C@H](Cc1ccccc1)NC(=O)[C@@H](NC(=O)CNC(=O)[C@H](CCC(=O)O)NC(=O)C(C)(C)NC(=O)[C@@H](N)Cc1ccc(O)cc1)[C@@H](C)O)[C@@H](C)CC)[C@@H](C)CC)C(=O)N[C@@H](CCCNC(=N)N)C(=O)N[C@@H](CCC(N)=O)C(=O)NC(C)(C)C(=O)N[C@@H](CC(=O)O)C(=O)N[C@@H](Cc1ccccc1)C(=O)N[C@H](C(=O)N[C@@H](CCC(=O)O)C(=O)N[C@@H](Cc1ccc(O)cc1)C(=O)N[C@@H](CCCCNC(=O)COCCOCCNC(=O)COCCOCCNC(=O)CC[C@H](NC(=O)CCCCCCCCCCCCCCCCCCC(=O)O)C(=O)O)C(=O)N[C@@H](CC(C)C)C(=O)N[C@@H](CCC(=O)O)C(=O)NCC(=O)NCC(=O)N1CCC[C@H]1C(=O)N[C@@H](CO)C(=O)N[C@@H](CO)C(=O)NCC(=O)N[C@@H](C)C(=O)N1CCC[C@H]1C(=O)N1CCC[C@H]1C(=O)N1CCC[C@H]1C(=O)N[C@@H](CO)C(N)=O)C(C)C` [Example 116] (H-Y[Aib]EGTFISDYSI[αMeL]LD[Orn]IRQ[Aib]DFVEYK([AEEA-AEEA-γGlu-C20 diacid])LEGGPSSGAPPPS-NH2) was run?
Its Ki is over 912 nM.

How did the Ki turn out when `CC[C@H](C)[C@H](NC(=O)[C@H](CCCCN)NC(=O)[C@H](CC(=O)O)NC(=O)[C@H](CC(C)C)NC(=O)[C@H](CC(C)C)NC(=O)[C@@H](NC(=O)[C@H](CO)NC(=O)[C@H](Cc1ccc(O)cc1)NC(=O)[C@H](CC(=O)O)NC(=O)[C@H](CO)NC(=O)[C@@H](NC(=O)[C@H](Cc1ccccc1)NC(=O)[C@@H](NC(=O)CNC(=O)[C@H](CCC(=O)O)NC(=O)[C@@H](C)NC(=O)[C@@H](N)Cc1ccc(O)cc1)[C@@H](C)O)[C@@H](C)CC)[C@@H](C)CC)C(=O)N[C@@H](C)C(=O)N[C@@H](CCC(N)=O)C(=O)NC(C)(C)C(=O)N[C@@H](CC(=O)O)C(=O)N[C@@H](Cc1ccccc1)C(=O)N[C@H](C(=O)N[C@@H](CC(N)=O)C(=O)N[C@@H](Cc1c[nH]c2ccccc12)C(=O)N[C@@H](CCCCNC(=O)COCCOCCNC(=O)COCCOCCNC(=O)CC[C@H](NC(=O)CCCCCCCCCCCCCCCCC(=O)O)C(=O)O)C(=O)N[C@@H](CC(C)C)C(=O)N[C@@H](C)C(=O)N[C@@H](CCC(N)=O)C(=O)NCC(=O)N1CCC[C@H]1C(=O)N[C@@H](CO)C(=O)N[C@@H](CO)C(=O)NCC(=O)N[C@@H](C)C(=O)N1CCC[C@H]1C(=O)N1CCC[C@H]1C(=O)N1CCC[C@H]1C(=O)N[C@@H](CO)C(N)=O)C(C)C` [Example 93] (H-Y[dA]EGTFISDYSILLDKIAQ[Aib]DFVNWK([AEEA-AEEA-γGlu-C18 diacid])LAQGPSSGAPPPS-NH2) was run?
The Ki was over 909 nM.

`CC[C@H](C)[C@H](NC(=O)[C@H](Cc1ccccc1)NC(=O)[C@@H](NC(=O)CNC(=O)[C@H](CCC(=O)O)NC(=O)C(C)(C)NC(=O)[C@@H](N)Cc1ccc(O)cc1)[C@@H](C)O)C(=O)N[C@@H](CO)C(=O)N[C@@H](CC(=O)O)C(=O)N[C@@H](Cc1ccc(O)cc1)C(=O)N[C@@H](CO)C(=O)N[C@H](C(=O)N[C@@](C)(CC(C)C)C(=O)N[C@@H](CC(C)C)C(=O)N[C@@H](CC(=O)O)C(=O)N[C@@H](CCCCN)C(=O)N[C@@H](CCCCNC(=O)COCCOCCNC(=O)COCCOCCNC(=O)CC[C@H](NC(=O)CCCCCCCCCCCCCCCCCCC(=O)O)C(=O)O)C(=O)N[C@@H](Cc1c[nH]cn1)C(=O)N[C@@H](CCC(N)=O)C(=O)NC(C)(C)C(=O)N[C@@H](CC(=O)O)C(=O)N[C@@H](Cc1ccccc1)C(=O)N[C@H](C(=O)N[C@@H](CCC(=O)O)C(=O)N[C@@H](Cc1ccncc1)C(=O)N[C@@H](CC(C)C)C(=O)N[C@@H](CC(C)C)C(=O)N[C@@H](C)C(=O)N[C@@H](C)C(=O)NCC(=O)N1CCC[C@H]1C(=O)N[C@@H](CO)C(=O)N[C@@H](CO)C(=O)NCC(=O)N[C@@H](C)C(=O)N1CCC[C@H]1C(=O)N1CCC[C@H]1C(=O)N1CCC[C@H]1C(=O)N[C@@H](CO)C(N)=O)C(C)C)[C@@H](C)CC` [Example 78] was tested. Which Ki did it give?
Its Ki is 394 nM.
